ChEMBL document CHEMBL4138213, “Synthesis and biological characterization of ubenimex-fluorouracil conjugates for anti-cancer therapy” (Eur J Med Chem, 2018)
Activity calls are given as the source filed them. The calls are words filed in the database; no cut-off is given here.

Columns and labels:
[1] = test system: PLC-PRF-5; test: Antiproliferative activity against human PLC/PRF/5 cells after 48 hrs by MTT assay; conditions: PLC-PRF-5, 48 h
[2] = test system: PLC-PRF-5; test: Antiproliferative activity against human PLC/PRF/5 cells in presence of 5-FU after 48 hrs by MTT assay; type: functional, cell-based; conditions: PLC-PRF-5, 48 h
[3] = Antiproliferative activity against human ES2 cells in presence of 5-FU after 48 hrs by MTT assay; conditions: ES-2, 48 h
[4] = test system: U-266; test: Antiproliferative activity against human U266 cells after 48 hrs by MTT assay; conditions: U-266, 48 h
[5] = test system: U-937; test: Antiproliferative activity against human U937 cells in presence of 5-FU after 48 hrs by MTT assay; conditions: U-937, 48 h
[6] = test system: U-266; test: Antiproliferative activity against human U266 cells in presence of 5-FU after 48 hrs by MTT assay; type: functional, cell-based; conditions: U-266, 48 h
[7] = test system: HCT-116; test: Antiproliferative activity against human HCT116 cells in presence of 5-FU after 48 hrs by MTT assay; conditions: HCT-116, 48 h
[8] = test system: A549; test: Antiproliferative activity against human A549 cells in presence of 5-FU after 48 hrs by MTT assay; conditions: A549, 48 h
[9] = Antiproliferative activity against human H7402 cells in presence of 5-FU after 48 hrs by MTT assay; conditions: H7402, 48 h
[10] = test system: HepG2; test: Antiproliferative activity against human HepG2 cells in presence of 5-FU after 48 hrs by MTT assay; type: functional, cell-based; conditions: HepG2, 48 h
[11] = test system: PLC-PRF-5; test: Induction of apoptosis in human PLC/PRF/5 cells assessed as early apoptotic cells at 20 uM after 48 hrs by annexin-V-FITC/propidium iodide staining-based flow cytometric method (reference value: 5.82%); type: functional
[12] = test system: PLC-PRF-5; test: Induction of apoptosis in human PLC/PRF/5 cells assessed as late apoptotic cells at 20 uM after 48 hrs by annexin-V-FITC/propidium iodide staining-based flow cytometric method (reference value: 0.341%); type: functional
[13] = test system: PLC-PRF-5; test: Induction of apoptosis in human PLC/PRF/5 cells assessed as necrotic cells at 20 uM after 48 hrs by annexin-V-FITC/propidium iodide staining-based flow cytometric method (reference value: 0.106%); type: functional
[14] = test system: PLC-PRF-5; test: Induction of apoptosis in human PLC/PRF/5 cells assessed as viable cells at 20 uM after 48 hrs by annexin-V-FITC/propidium iodide staining-based flow cytometric method (reference value: 93.7%); type: functional; conditions: PLC-PRF-5, 48 h, read-out: Activity
[15] = test system: PLC-PRF-5; test: Induction of apoptosis in human PLC/PRF/5 cells assessed as early apoptotic cells at 20 uM in presence of 5-FU after 48 hrs by annexin-V-FITC/propidium iodide staining-based flow cytometric method (reference value: 5.82%); type: functional
[16] = test system: PLC-PRF-5; test: Induction of apoptosis in human PLC/PRF/5 cells assessed as late apoptotic cells at 20 uM in presence of 5-FU after 48 hrs by annexin-V-FITC/propidium iodide staining-based flow cytometric method (reference value: 0.341%); type: functional
[17] = test system: PLC-PRF-5; test: Induction of apoptosis in human PLC/PRF/5 cells assessed as necrotic cells at 20 uM in presence of 5-FU after 48 hrs by annexin-V-FITC/propidium iodide staining-based flow cytometric method (reference value: 0.106%); type: functional
[18] = test system: PLC-PRF-5; test: Induction of apoptosis in human PLC/PRF/5 cells assessed as viable cells at 20 uM in presence of 5-FU after 48 hrs by annexin-V-FITC/propidium iodide staining-based flow cytometric method (reference value: 93.7%); type: functional; conditions: PLC-PRF-5, 48 h, read-out: Activity
[19] = test system: PLC-PRF-5; test: Downregulation of CD13 expression in human PLC/PRF/5 cells at 10 uM after 48 hrs by flow cytometric method; type: functional, cell-based
[20] = test system: PLC-PRF-5; test: Downregulation of CD13 expression in human PLC/PRF/5 cells at 10 uM in presence of 5-FU after 48 hrs by flow cytometric method; type: functional, cell-based
[21] = Drug level in Wistar rat plasma treated with (5-fluoro-2,4-dioxo-3,4-dihydropyrimidin1(2H)-yl)methyl-2-((S)-2-((2S,3R)-3-amino-2-hydroxy-4-phenylbut-anamido)-4-methylpentanamido)acetate hydrochloride assessed as peptidase-mediated compound formation at 80 mg/kg, iv by HPLC-MS/MS analysis; type: ADME, organism-based; conditions: in vivo
[22] = AUC (0 to infinity) in Wistar rat at 80 mg/kg, iv after 0.05 to 24 hrs by HPLC-MS/MS analysis; type: ADME, organism-based; set-up: dose 80 mg/kg, time infinity, route intravenous; conditions: in vivo
[23] = MRT (0 to infinity) in Wistar rat at 80 mg/kg, iv after 0.05 to 24 hrs by HPLC-MS/MS analysis; type: ADME, organism-based; conditions: Wistar, in vivo
[24] = test system: Rattus norvegicus; test: VRT (0 to infinity) in Wistar rat at 80 mg/kg, iv after 0.05 to 24 hrs by HPLC-MS/MS analysis; type: ADME, organism-based; conditions: in vivo
[25] = Apparent clearance in Wistar rat at 80 mg/kg, iv after 0.05 to 24 hrs by HPLC-MS/MS analysis; type: ADME, organism-based; conditions: in vivo, read-out: CL(app) (converted)
[26] = Volume of distribution during elimination phase in Wistar rat at 80 mg/kg, iv after 0.05 to 24 hrs by HPLC-MS/MS analysis; type: ADME, organism-based; conditions: in vivo, read-out: Vz
[27] = Terminal Half life in Wistar rat at 80 mg/kg, iv after 0.05 to 24 hrs by HPLC-MS/MS analysis; type: ADME, organism-based; conditions: Wistar, in vivo, read-out: beta t1/2 (converted)
[28] = Cmax in Wistar rat at 80 mg/kg, iv after 0.05 to 24 hrs by HPLC-MS/MS analysis; type: ADME, organism-based; set-up: dose 80 mg/kg, route intravenous; conditions: in vivo
[29] = test system: HUVEC; conditions: Homo sapiens, 30 uM
[30] = test system: U-937; test: cells; conditions: Homo sapiens, U-937, 48 h
Description: Antiproliferative activity against human U937 cells after 48 hrs by MTT assay

[31] = test system: HCT-116; test: cells; conditions: Homo sapiens, HCT-116, 48 h
[32] = test system: HepG2; test: cells; conditions: Homo sapiens, HepG2, 48 h

**Q.** With `CC(C)C[C@H](NC(=O)[C@@H](O)[C@H](N)Cc1ccccc1)C(=O)O` [UBENIMEX] as the compound, how does the IC50 [1] read?
**A.** > 500 µM

**Q.** What about the IC50 [2] of the same compound?
**A.** 22.8 µM

**Q.** What about the IC50 [3] of the same compound?
**A.** 37.1 µM

**Q.** And the IC50 [4]?
**A.** > 500 µM

**Q.** And the IC50 [5]?
**A.** 9.56 µM

**Q.** What about the IC50 [6] of the same compound?
**A.** 43.5 µM

**Q.** What about the IC50 [7] of the same compound?
**A.** 44.1 µM

**Q.** What about the IC50 [8] of the same compound?
**A.** 15.9 µM

**Q.** And the IC50 [9]?
**A.** 17.6 µM

**Q.** What about the IC50 [10] of the same compound?
**A.** 14.5 µM

**Q.** What about the Activity [11] of the same compound?
**A.** 13%

**Q.** And the Activity [12]?
**A.** 3.59%

**Q.** And the Activity [13]?
**A.** 0.01%

**Q.** What about the viability at 20 µM [14] of the same compound?
**A.** 83.4%

**Q.** What about the Activity [15] of the same compound?
**A.** 33.3%

**Q.** What about the Activity [16] of the same compound?
**A.** 2.38%

**Q.** What about the Activity [17] of the same compound?
**A.** 0%

**Q.** And the viability at 20 µM [18]?
**A.** 64.3%

**Q.** What about the Activity [19] of the same compound?
**A.** Active

**Q.** What about the Activity [20] of the same compound?
**A.** Active

**Q.** And the Drug metabolism [21]?
**A.** Metabolite_Detected

**Q.** What about the AUC(0-inf) [22] of the same compound?
**A.** 11500 ng·h/mL

**Q.** What about the MRT inf [23] of the same compound?
**A.** 3.44 h

**Q.** What about the VRT [24] of the same compound?
**A.** 13.087 hr2

**Q.** What about the clearance [25] of the same compound?
**A.** 116 mL/min/kg

**Q.** What about the Vd [26] of the same compound?
**A.** 34.2 L/kg

**Q.** What about the half-life [27] of the same compound?
**A.** 3.4 h

**Q.** And the Cmax [28]?
**A.** 2300 ng/mL

**Q.** And the inhibition [29]?
**A.** Active

**Q.** And the IC50 [30]?
**A.** 143 µM

**Q.** And the IC50 [31]?
**A.** 358 µM

**Q.** And the IC50 [32]?
**A.** > 500 µM
